Experiments:
[1] = In vitro microdialysis with the intravenous EIRUS CVC catheter: drug concentrations in medium and dialysate, relative recovery (RRT, RRU); details: perfusate NaCl 0.9% 5 μL/min, 37°C; for Concentration dialysate: EIRUS catheter 5000 Da cutoff, immunoassay, mean (range)
[2] = Unbound drug concentration in the external medium by ultrafiltration (Centrifree) and immunoassay; details: mean (range)
[3] = Human plasma, immunoassay, triplicate (gentamicin marked **)
[4] = Human serum, immunoassay, triplicate (gentamicin repeated twice)
[5] = Medium 5: 0.2 mmol/L phosphate buffer with albumin 40 g/L in NaCl 0.9% pH 6.9, immunoassay, triplicate

## CNC(C)C1CCC(N)C(OC2C(N)CC(N)C(OC3OCC(C)(O)C(NC)C3O)C2O)O1 (stereo not shown) [Gentamicin]
[1]; Human plasma, triplicate (gentamicin marked **)
  Concentration dialysate: 8.4 (7.1‐9.6) mg/L
[1]; Human serum, triplicate (gentamicin repeated twice)
  Concentration dialysate: 7.1 (5.8‐8.3) mg/L
[1]; Medium 3: 0.2 mmol/L phosphate buffer pH 7.4, triplicate
  Concentration dialysate: 21.5 (21.1‐21.8) mg/L
[1]; Medium 5: 0.2 mmol/L phosphate buffer with albumin 40 g/L in NaCl 0.9% pH 6.9, triplicate
  Concentration dialysate: 7.5 (7.4‐7.8) mg/L
[2]; [3]
  Unbound drug concentration medium: 8.9 (7.7‐10.9) mg/L
[2]; [4]
  Unbound drug concentration medium: 7.7 (6.6‐8.9) mg/L
[2]; [5]
  Unbound drug concentration medium: 7.3 (7.2‐7.4) mg/L

## CN[C@H](CC(C)C)C(=O)N[C@H]1C(=O)N[C@@H](CC(N)=O)C(=O)N[C@H]2C(=O)N[C@H]3C(=O)N[C@H](C(=O)N[C@H](C(=O)O)c4cc(O)cc(O)c4-c4cc3ccc4O)[C@H](O)c3ccc(c(Cl)c3)Oc3cc2cc(c3O[C@@H]2O[C@H](CO)[C@@H](O)[C@H](O)[C@H]2O[C@H]2C[C@](C)(N)[C@H](O)[C@H](C)O2)Oc2ccc(cc2Cl)[C@H]1O [Vancomycin]
[1]; EIRUS catheter, t-test: significant difference prior to 60 minutes, none after
  Time after which a constant (stable) recovery was observed: 60 min
[2]; [3]
  Unbound drug concentration medium: 13.2 (10.0‐14.9) mg/L
[2]; [4]
  Unbound drug concentration medium: 13.2 (13.2‐13.2) mg/L
[2]; Medium 4: 0.2 mmol/L phosphate buffer with albumin 40 g/L pH 7.1, immunoassay, triplicate
  Unbound drug concentration medium: 6.7 (6.6‐7.4) mg/L
[2]; [5]
  Unbound drug concentration medium: 10.3 (10.3‐10.4) mg/L
[2]; Medium 6: 0.2 mmol/L phosphate buffer with albumin 40 g/L in NaCl 1.8%, immunoassay, repeated twice
  Unbound drug concentration medium: 13.3 (13.3‐13.3) mg/L
